Assays:
p21-GFP fusion protein = p21-GFP fusion protein amount in cells; type: cell-based, human; conditions: Hep3B expressing p21-GFP
[1] = animals studies; cited from earlier work
[2] = tested on: human mesenchymal stem cells; assay: Differentiation markers of mesenchymal stem cells (western blot); type: cell-based; conditions: day 14
Description: We investigated the differentiation of stem cells in the presence of memantine after cell passages using the simple differentiation method using the DMEM/F12, 10% FBS without coculture of mouse fibroblast (Yoo et all. 2020).
Cell were harvested at day 14 for western blot and the protein expression amounts of the differentiation markers cd44, cd73, and cd90 were investigated. […] Another indicator of the stem cell differentiation is the determination of the amounts of lipid droplet in the cell. Fourteen-day cell passage is caused to increase lipid in the cell. It was observed that memantine treatment has prevented the amount of lipid droplet (FIG. 36D).

C. elegans = assay: NADP+ and NADPH+ amount in C. elegans; type: in vivo; conditions: 19th day
Description: Therefore, the amount of NADP+ and NADPH+ were investigated in C. elagans.

NMDA receptor = conditions: cited from earlier work
[3] = human subjects; cited from earlier work

Compound	p21-GFP fusion protein / GFP amount (p21-GFP fusion protein)	induction of HSP, neuronal vacuolization and necrosis [1]	increase in cd44 protein expression [2]	increase in cd73 protein expression [2]	increase in cd90 protein expression [2]	NADP+ compared to C. elegans without treatment (C. elegans) [folds]	block of NR2C and NR2D Subunits (NMDA receptor)	effects at NR2A (NMDA receptor)	potency at NR1A/2B (NMDA receptor)	levels at which the mechanism of action is specific for antagonism of the NMDA receptor (NMDA receptor; does not affect other ligand-gated or Voltage gated channels) [µM]	CSF concentrations, lower [3]
CNC1(c2ccccc2Cl)CCCCC1=O (centres unmarked) [ketamin, 2-(2-chlorophenyl)-2-(methylamino)-cyclohexanone]	decrease	–	–	–	–	–	–	–	–	–	–
CC12CC3CC(C)(C1)CC(N)(C3)C2 [memantine, 3,5-dimethyladamantan-1-amine]	–	No induction	statistically significantly less	statistically significantly less	statistically significantly less	2	preferentially blocks	weak effects	intermediate potency	1 to 10	30-40%

Source: patent publication US20250161238A1, “NMDAR Antagonists Prevent Ageing and Aging-Associated Conditions and Diseases Through Increasing 20S Proteasome Activity” (priority 2022, published 2025)
